In US20110201569A1, “Methods For Treating Myocardial Disorders” (priority 2009, published 2011):
Entries after “also recorded” stand apart in the source; their conditions may differ.

Legend:
Format in all cases: in vivo, mouse
[1] = system: atrial natriuretic peptide (ANP); experiment: qRT-PCR of ANP mRNA in left ventricle after TAC/sham
Protocol: (§1) 11 to 13 week old male C57BL/6 mice were purchased from Charles River (Germany). Mice were housed in individually ventilated pathogen-free cages with free access to water and standard rodent chow. The animals were handled according to the principles of laboratory animal care (NIH publication No. 85-23, revised 1996), and animal procedures were approved by the local committee for animal care.
(§2) The first injection was performed 5 min prior to TAC or sham-operation procedure (described below) and repeated 4, 8, 12, 24, 36, 48 and 60 hrs after surgery. […]
(§3) Quantitative real-time PCR analysis was completed. […] RNA was dissolved in 100 μl of RNase-free water, and concentration was determined photometrically (absorbance at 260 nm) before storage at −80° C. […]
(§4) Real-time PCR was performed according to the manufacturer's protocol. […] Each sample was measured in triplicate wells and underwent 40 cycles of amplification on an ABI PRISM® Sequence Detection System (Applied Biosystems). CT values were determined with SDS Software 2.2 (Applied Biosystems) and relative quotients (RQ) were calculated following the ΔΔCT method (RQ target gene/GAPDH).
(§5) Statistics were calculated using Prism 4.05 (GraphPad Software Inc., CA, USA). All values are expressed as mean (M)±SEM. […]

[2] = system: TIMP-4; experiment: qRT-PCR of TIMP-4 mRNA in left ventricle after TAC/sham
Protocol: as §1, §2, §3, §4, §5

[3] = system: matrix metalloproteinase-2 (MMP-2); experiment: qRT-PCR of MMP-2 mRNA in left ventricle after TAC/sham
Protocol: as §1, §2, §3, §4, §5

[4] = system: IL-6; experiment: ELISA of IL-6 protein in myocardial tissue after TAC/sham
Protocol: as §1
(§6) The first injection was performed 5 min prior to TAC or sham-operation procedure (described below) and repeated 4, 8, 12, 24, 36, 48 and 60 hrs after surgery. Animals were randomly assigned into two groups, receiving either a tetrasodium salt of the compound of formula 1 (hereinafter “Eritoran tetrasodium”) or placebo. […]
(§7) For ELISA assays, proteins from snap-frozen myocardial tissue were isolated and cytosolic and nuclear proteins separated according to the manufacturer's protocol (NE-PER®, Nuclear and Cytoplasmic Extraction Kit, Pierce®, Thermo Scientific, IL, USA). Myocardial protein levels in the cytoplasmic fraction were detected with Quantikine mouse IL-1β as well as IL-6 ELISA (R&D Systems, […], USA) as described in the manufacturer's protocol. […] Protein concentration was determined by B CA protein assay (Pierce®).
as §5

[5] = system: matrix metalloproteinase-9 (MMP-9); experiment: qRT-PCR of MMP-9 mRNA in left ventricle after TAC/sham
Protocol: as §1, §2, §3, §4, §5

[6] = system: TLR4; experiment: qRT-PCR of TLR4 mRNA in left ventricle after TAC/sham
Source text: Treatment groups were separated into two subgroups, undergoing transverse aortic constriction (TAC) or sham operation. […]

[7] = system: IL-1β; experiment: ELISA of IL-1β protein in myocardial tissue after TAC/sham
Protocol: as §1, §6, §7, §5

[8] = system: IL-6; experiment: qRT-PCR of IL-6 mRNA in left ventricle after TAC/sham
Protocol: as §1, §2, §3, §4, §5

[9] = system: IL-10; experiment: qRT-PCR of IL-10 mRNA in left ventricle after TAC/sham; conditions: for IL-10 mRNA level: three days after surgery, qRT-PCR, M ± SEM
Protocol: as §1
The first injection was performed 5 min prior to TAC or sham-operation procedure (described below) and repeated 4, 8, 12, 24, 36, 48 and 60 hrs after surgery. Animals were randomly assigned into two groups, receiving either a tetrasodium salt of the compound of formula 1 (hereinafter “Eritoran tetrasodium”) or placebo. The catheter was flushed with 50 μl 0.9% NaCl before and 100 μl after each injection of 50 μl Eritoran tetrasodium (2.5 mg/ml vehicle; 5 mg/kg bodyweight/application; dosage adopted from Shimamoto et al., Circulation 2006, 114: 1270-1274) or placebo solution.
Treatment groups were separated into two subgroups, undergoing transverse aortic constriction (TAC) or sham operation. Surgery for TAC was achieved as published previously (see, e.g., Baumgarten et al., Circulation 2002, 105: 2192-2197 and Baumgarten et al., Basic Res Cardiol 2006, 101: 427-435). Mice were intubated in a supine position and mechanical ventilation was initiated (MiniVent 845, Hugo Sachs Elektronik, Germany). A left parasternal incision was performed. A suture was passed underneath the aorta and tied down on a 27 Gauge needle, which was immediately removed and allowed to achieve a standardised and previously validated decreased diameter of the aorta. For sham operation the suture was passed underneath the aorta without ligation. […]
as §3, §4
Statistics were calculated using Prism 4.05 (GraphPad Software Inc., CA, USA). All values are expressed as mean (M)±SEM. One-way ANOVA with Newman-Keuls post-hoc testing was performed for statistical analysis with the exception of TIMP and cytokine expression which were analysed with Kruskal-Wallis and Dunn's multiple comparison post-hoc testing Impact of TAC-Eritoran on IL-10 expression was analysed with Two-way ANOVA. […]

[10] = Example 1, TAC vs sham within treated groups, three days after surgery
[11] = Example 1, TAC, three days after surgery
[12] = Example 2, TAC treated vs TAC-placebo

## CCCCCC/C=C\CCCCCCCCCC(=O)N[C@H]1[C@H](OC[C@H]2O[C@H](OP(=O)([O-])[O-])[C@H](NC(=O)CC(=O)CCCCCCCCCCC)[C@@H](OCCCCCCCCCC)[C@@H]2O)O[C@H](COC)[C@@H](OP(=O)([O-])[O-])[C@@H]1OCC[C@@H](CCCCCCC)OC.[Na+].[Na+].[Na+].[Na+] [Eritoran tetrasodium]
[1]; Example 1, TAC, vs TAC placebo, three days after surgery
  ANP mRNA expression: markedly decreased BNP but not ANP expression
[2]; Example 1, sham and TAC groups, three days after surgery
  TIMP-4 mRNA expression: no significant differences between groups
[3]; [10]
  MMP-2 mRNA level: remained unchanged by aortic banding
[4]; [11]
  IL-6 protein expression (ELISA): did not display significant increases; also recorded: lower levels of pro-inflammatory cytokines compared to TAC placebo hearts (not significant)
[5]; [10]
  MMP-9 mRNA level: remained unchanged by aortic banding
[6]; [11]
  TLR4 mRNA expression: no significant effects
[6]; Example 1, sham operation, three days after surgery
  TLR4 mRNA expression: had no effects on the mRNA expression
[7]; [11]
  IL-1β protein expression (ELISA): did not display significant increases; also recorded: lower levels of pro-inflammatory cytokines compared to TAC placebo hearts (not significant)
[8]; Example 1, TAC, three days after surgery, qRT-PCR, M ± SEM
  IL-6 mRNA level: 16.60 ± 7.55
[9]; Example 1, TAC
  IL-10 mRNA level: 4.71 ± 1.22 b
[9]; Example 1, in sham and TAC groups, p<0.05, Two-way Anova
  elevation of IL-10 mRNA: three to four fold elevation
[9]; Example 1, sham operation
  IL-10 mRNA level: 3.81 ± 1.69 b

## CCCCCC/C=C\CCCCCCCCCC(=O)N[C@H]1[C@H](OC[C@H]2O[C@H](OP(=O)(O)O)[C@H](NC(=O)CC(=O)CCCCCCCCCCC)[C@@H](OCCCCCCCCCC)[C@@H]2O)O[C@H](COC)[C@@H](OP(=O)(O)O)[C@@H]1OCC[C@@H](CCCCCCC)OC [compound of formula (I), α-D-Glucopyranose, 3-O-decyl-2-deoxy-6-O-[2-deoxy-3-O-[(3R)-3-methoxydecyl)-6-O-methyl-2-[[(−11Z)-1-oxo-11-octadecenyl)amino]-4-O-phosphono-β-D-glucopyranosyl]-2-[(1,3-dioxotetradecyl)amino]-1-(dihydrogen phosphate)]
[1]; [12]
  ANP mRNA expression: elevated in TAC-placebo mice compared to sham and the TAC groups treated
[2]; [12]
  TIMP-4 mRNA expression: higher
[3]; [12]
  MMP-2 mRNA expression: higher in the TAC-placebo animals compared to the TAC groups treated
[4]; Example 2, TAC treated group
  IL-6 protein expression: reduced
[5]; [12]
  MMP-9 mRNA expression: higher in the TAC-placebo animals compared to the TAC groups treated
[6]; [12]
  TLR4 mRNA expression: significantly reduced
[7]; Example 2, TAC treated group
  IL-1β protein expression: reduced
[8]; [12]
  IL-6 mRNA expression: lower
[9]; [12]
  IL-10 mRNA expression: increased
